Measurements reported in publication PMC4076079, “Selective inhibitors of a PAF biosynthetic enzyme lysophosphatidylcholine acyltransferase 2” (Journal of Lipid Research, 2014).
Where two headings read alike, the source gives them in different places.

How the values were obtained:
hLPCAT1 = molecular target: T1, hLPCAT1 (Homo sapiens, UniProt Q8NF37); experiment: lyso-PAFAT (acetyltransferase) activity assay, PAF product by LC-MS/MS; format: biochemical; details: for IC50: 0, 0.2, 0.6, 2, 6 and 20 μM of each compound in triplicate, LC-MS/MS, read-out: IC50, product PAF, enzyme hLPCAT1; for percentage inhibition, product PAF, hLPCAT1: 20 μM compound, microsomal fractions of nonstimulated CHO-S-PAFR cells, n = 3, mean ± SEM
T1 construct: expressed in transfected cells
T1 sequence (Q8NF37 1-534): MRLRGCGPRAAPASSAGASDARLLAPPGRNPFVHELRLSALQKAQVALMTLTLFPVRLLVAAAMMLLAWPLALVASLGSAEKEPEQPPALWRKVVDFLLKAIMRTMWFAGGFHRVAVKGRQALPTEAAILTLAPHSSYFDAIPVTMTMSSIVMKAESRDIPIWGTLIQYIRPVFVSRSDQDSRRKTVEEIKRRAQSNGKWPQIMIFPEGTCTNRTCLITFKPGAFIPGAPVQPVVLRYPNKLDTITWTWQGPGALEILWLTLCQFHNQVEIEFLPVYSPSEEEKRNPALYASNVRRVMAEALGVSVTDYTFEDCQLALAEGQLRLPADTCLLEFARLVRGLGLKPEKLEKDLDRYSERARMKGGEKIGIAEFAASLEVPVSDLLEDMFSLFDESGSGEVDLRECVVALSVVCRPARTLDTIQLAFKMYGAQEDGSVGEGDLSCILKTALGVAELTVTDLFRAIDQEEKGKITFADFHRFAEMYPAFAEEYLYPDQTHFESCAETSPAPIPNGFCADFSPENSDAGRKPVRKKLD
Protocol: Microsomal protein fractions (0.5 μg) supplemented with the indicated compound concentrations were added to the reaction mixture containing 100 mM Tris-HCl (pH 7.4), 1 μM CaCl2, 0.015% Tween-20, and two substrates. For acetyltransferase activity, the substrates were 1 mM acetyl-CoA and 5 μM d4-lyso-PAF; for the acyltransferase activity of LPCAT1 or LPCAT2, the substrates were, respectively, palmitoyl-CoA and d31-16:0 LPC or arachidonoyl-CoA and d4-lyso-PAF (all 5 μM). Each lysophospholipid contained fatty acid at the sn-1 position. After incubation at 37°C for 5 min, the reactions were stopped by adding 300 μl methanol containing 17:0 LPC or 14:0/14:0 PC as an internal standard. Deuterium-labeled products were analyzed by LC-MS/MS (Waters, Milford, MA and Thermo Scientific, Waltham, MA). […]
Steps 2 to 5 screening: 96-well plate assay
Acetyltransferase and acyltransferase assays were developed in 96-well plates. The microsomal hLPCAT2, obtained from mcPAF-stimulated CHO-S-PAFR cells was used in steps 1, 2, and 5. The microsomal hLPCAT1 obtained from unstimulated CHO-S cells was used in steps 3 to 5. Each well of the 96-well plates contained 30 µl of 15 µg/ml protein, 600 nl of 2 mM compound, 30 µl buffer C, and two substrates (Fig. 1B and C).
Substrate concentrations were as follows: acetyl-CoA, 250 or 1000 µM acetyl-CoA; […]
arachidonoyl-CoA, 5 µM; palmitoyl-CoA, 5 µM; d4-lyso-PAF, 5 µM; and d31-LPC, 5 µM.
For step 5, compound concentrations were 0, 0.167, 0.67, 2, 6.7, and 20 µM. The deuterium-labeled products were measured by LC-MS/MS. Percentage inhibition (steps 2 to 4) or IC50 (step 5) was used as the hit criterion. […]
Step 7 screening: species-specific differences
To evaluate the effects on the activity of mouse or human LPCAT1 and LPCAT2, each microsomal fraction was obtained using CHO-S-PAFR cells with or without mcPAF (200 nM) stimulation for 5 min. Acetyltransferase and acyltransferase assays were performed with 20 µM of each compound. Percentage inhibition was calculated in each

[1] = cell viability assay (WST-8); format: cell-based; details: mouse, RAW264.7 cells (wild-type), 36 h treatment, data not shown, read-out: cytotoxicity IC50 (cell viability)
Protocol: (§1) Cell viability was measured using a modified MTT [3-(4,5-dimethylthiazol-2-yl)-2,5-diphenyltetrazolium bromide] dye reduction assay using WST-8 [2-(2-methoxy-4-nitrophenyl)-3-(4-nitrophenyl)-5-(2,4-disulfophenyl)-2H-tetrazolium, monosodium salt; Dojindo Molecular Technologies, Inc., Kumamoto, Japan] according to the manufacturer’s instructions. […] or RAW-mLPCAT2 cells were seeded in 96-well plates (1 × 10^4 cells/well) for 8 h and then treated with a compound for 36 h. WST-8 was added for another 2 h and the 450 nm absorbance was measured using a microplate reader (Bio-Rad). Cell viability was expressed as a percentage of vehicle-treated control values. To observe the effects of the incubation time on cell viability, 0.4 × 10^4 RAW-mLPCAT2 cells were treated with compounds for 1 or 6 h before the WST-8 assay.
(§2) Step 8 screening: cell viability assay
(§3) Wild-type RAW264.7 cells and RAW264.7 cells transfected with mLPCAT2 or control plasmid were used. Cells were cultured for 36 h with 0, 0.06, 0.2, 0.6, 2, 6, and 20 µM of compounds in 96-well plates and assayed for viability with WST-8. […]
(§4) The data were normalized to each positive control (100% activation). Percentage inhibition or IC50 were determined in each screening step. To assess screening quality, the percentage coefficient of variance and the Z’ factor was calculated for each plate or each assay as described previously (2).

[2] = cell viability assay (WST-8); format: cell-based, mouse; details: mouse, RAW-mLPCAT2 cells (RAW264.7 cells transfected with mLPCAT2), 36 h treatment, WST-8, data not shown, read-out: cytotoxicity IC50 (cell viability)
Protocol: as §1, §2, §3, §4

RAW-mLPCAT2 cells = experiment: cell viability assay (WST-8); format: cell-based, mouse; details: Mus musculus, 1 h pretreatment
Protocol: as §1, §2, §3, §4

SMILES	IC50 (hLPCAT1) [µM]	percentage inhibition, product PAF, hLPCAT1 (hLPCAT1) [percentage]	IC50 at 36 h [1] [µM]	IC50 at 36 h [2] [µM]	IC50 (RAW-mLPCAT2 cells) [µM]
CC(C)OC(=O)c1ccc(N2C(=O)C(Cl)=C(Cl)C2=O)cc1 [TSI-01, propan-2-yl 4-(3,4-dichloro-2,5-dioxopyrrol-1-yl)benzoate]	3.02	75.9 ± 5.2	> 20	> 20	> 60
O=C1C(Cl)=C(N2CCOCC2)C(=O)N1c1ccc(Oc2ccccc2)cc1 [TSI-02, 3-chloro-4-morpholin-4-yl-1-(4-phenoxyphenyl)pyrrole-2,5-dione]	8				
CC(C)OC(=O)c1ccc(N2C(=O)C(Cl)=C(Nc3ccccc3O)C2=O)cc1 [TSI-07]	> 20	11.9 ± 13.1	> 20	> 20	> 60
CCCOC(=O)c1ccc(N2C(=O)C(Cl)=C(Cl)C2=O)cc1 [TSI-10]	2.42	76.1 ± 4.4	> 20	> 20	> 60
CCCCOC(=O)c1ccc(N2C(=O)C(Cl)=C(Cl)C2=O)cc1 [TSI-11, butyl 4-(3,4-dichloro-2,5-dioxopyrrol-1-yl)benzoate]	1.01	78.6 ± 2.8	> 20	> 20	> 60
